Data set [1] deals with Mycobacterium tuberculosis. In words: Antibacterial activity against Mycobacterium tuberculosis infected in Hartley guinea pig lung assessed as reduction in bacterial load at 30 mg/kg. Format: functional, organism-based. More on the design: dose 30 mg/kg.
Data set [2] relates to Mycobacterium tuberculosis. In words: Antibacterial activity against Mycobacterium tuberculosis infected in Hartley guinea pig spleen assessed as reduction in bacterial load at 30 mg/kg. On the set-up: dose 30 mg/kg. Format: functional, organism-based.
For data set [3], the system named is Mycobacterium tuberculosis. The experiment in a line: Antibacterial activity against Mycobacterium tuberculosis infected in Hartley guinea pig lung assessed as reduction in development of new secondary lesions at 30 mg/kg after 4 weeks by histological analysis relative to control. It counts as functional, organism-based. More on the design: dose 30 mg/kg.
Data set [4] relates to Mycobacterium tuberculosis. The experiment in a line: Antibacterial activity against Mycobacterium tuberculosis infected in Hartley guinea pig lung assessed as reduction in bacteria induced progression of inflammation at 30 mg/kg after 4 weeks by histological analysis relative to control. Format: functional, organism-based. On the set-up: dose 30 mg/kg.
For data set [5], the system named is Mycobacterium tuberculosis. The experiment in a line: Antibacterial activity against Mycobacterium tuberculosis infected in Hartley guinea pig lung assessed as reduction in development of new secondary lesions at 100 mg/kg after 4 weeks by histological analysis relative to control. On the set-up: dose 100 mg/kg. It counts as functional, organism-based.
Data set [6] relates to Mycobacterium tuberculosis. The experiment in a line: Antibacterial activity against Mycobacterium tuberculosis infected in Hartley guinea pig lung assessed as reduction in bacterial load at 100 mg/kg. Format: functional, organism-based. More on the design: dose 100 mg/kg.
Data set [7] concerns Mycobacterium tuberculosis. In words: Antibacterial activity against Mycobacterium tuberculosis infected in Hartley guinea pig spleen assessed as reduction in bacterial load at 100 mg/kg. Format: functional, organism-based. More on the design: dose 100 mg/kg.
Data set [8] deals with Mycobacterium tuberculosis. The experiment in a line: Antibacterial activity against Mycobacterium tuberculosis infected in Hartley guinea pig lung assessed as reduction in bacteria induced progression of inflammation at 100 mg/kg after 4 weeks by histological analysis relative to control. Format: functional, organism-based. On the set-up: dose 100 mg/kg.
Data set [9] can be described thus: Toxicity in Hartley guinea pig lung assessed as formation of TB lesions by histological analysis. The following applies: in vivo. More on the design: species or system Cavia porcellus.

Activity calls are given as the source filed them. No cut-off for these calls is given here.

For `NNC(=O)c1ccncc1`, the outcome in data set [1], in [2], in data set [3] and in data set [4] was Active.

As to `Cc1ncc([N+](=O)[O-])n1CCO` [METRONIDAZOLE], the result in data set [5], in data set [6], in [7] and in data set [8] was inactive. Further, in [9], the Activity entry is reported as “Toxic”.

These data come from ChEMBL document CHEMBL1275520, “Metronidazole lacks antibacterial activity in guinea pigs infected with Mycobacterium tuberculosis” (Antimicrob Agents Chemother, 2008).
